Where two headings read alike, the source gives them in different places.
Legend:
[1] = tested on: β-catenin-dependent Wnt-pathway; test: TopFlash luciferase reporter assay, CHIR99021-stimulated, HCC1395; format: cell-based; conditions: for Emax / IC50: Homo sapiens; for Emax: read-out: HCC1395 TopFlash Efficacy; for TopFlash activity in words: CHIR99021; for GSK HCC1395 Comments: Table S2
Excerpt: Both stimulations abolish formation of the destruction complex, a multiprotein complex consisting of Axin, adenomatous polyposis coli (APC), glycogen synthase kinase three beta (GSK3β), and casein kinase one alpha (CK1α). Upon inactivation of the complex, β-catenin accumulates in the cytoplasm and translocates into the nucleus where it interacts with transcription factors. These downstream events are quantified by a Luciferase transcription-based readout assay (TopFlash assay).

[2] = in vitro; conditions: human
Description: (§1) The simplicity of the scaffold combined with synthetic accessibility allows building a library of compounds and performing structure activity relationship (SAR) studies of the three main parts of the molecule: the top part, the linker and the core (Figure 2).
(§2) The synthesized compounds were used to explore SAR of three defined areas of investigation (Figure 2). All compounds were tested in the HCC1395 TNBC cell line using the GSK3β inhibitor to induce β-catenin signaling since 4a acted downstream of GSK3β (Figure 2). Both inhibition of β-catenin signaling measured by the TopFlash reporter and cytotoxicity measured by the Renilla reporter were assessed.
(§3) The Wnt3a or CHIR99021-stimulated luciferase activity in HCC1395 TNBC cell line stably transfected with the TopFlash reporter was analyzed essentially as described for the BT-20 TNBC cell line ([Shaw et al., 2019b]; [Koval et al., 2021]). Reporter cells were seeded at 10,000 cells/well in a white opaque 384-well plate in the final volume of 20 μl of DMEM medium supplemented with 10% FCS. The cells were maintained incubated at 37°C, 5% CO2 overnight for attachment. Subsequently, they were transfected by a plasmid encoding constitutively expressed Renilla luciferase under the CMV promoter overall as described in the manufacturer’s protocol using 12 μg/ml of DNA and 40 μl/ml XtremeGENE nine reagent. The next day, the medium in each well was replaced with a 10 μl of fresh medium containing compound of interest, and, after 1 h of preincubation with the compounds, additional 10 μl of medium supplemented with Wnt3a [purified as described ([Willert et al., 2003]; [Koval and Katanaev, 2011])] or CHIR99021 were added creating respective final concentrations of 2.5 μg/ml or 5 μM of each. In case of other signal transduction reporters, no additional stimulation was performed. Compound dilutions were prepared by serial dilution in DMSO and diluted with the amount of medium necessary to obtain their final concentrations indicated on the figures and tables and maintain concentration of DMSO of 0.5% in all assay points. After overnight incubation, the supernatant in each well was removed, and the luciferase activity was measured as described ([Dyer et al., 2000]; [Huber et al., 2021]; [Pellissier et al., 2021]). The culture medium was completely removed from all wells of the plate. Finally, the luciferase activity of the firefly and Renilla luciferases was detected sequentially in individual wells of a 384-well plate through injection of corresponding measurement solutions and immediate reading (400 ms integration time) in Infinite M Plex multifunctional plate reader with injection module.

[3] = tested on: BT-20 TNBC cell line; test: MTT survival assay BT-20; format: cell-based; conditions: Homo sapiens, BT-20; Table S2; read-out: MTT BT-20 IC50
Description: (§4) Indicated TNBC cell lines were detached and resuspended at 120,000 cells/ml and added into each well of a transparent 384-well plate in the final volume of 20 µl/well. The cells were maintained in DMEM containing 10% FBS at 37°C, 5% CO2 overnight. Next day, the medium in each well was replaced by 40 μl of the fresh one containing the indicated concentrations of compounds. In case of drug combination experiments, each compound dilution was delivered in corresponding well in 20 μl of medium. […] After incubation for 3–4 days, depending on the cell line, the medium in each well was replaced by 25 μl of 0.5 mg/ml Thiazolyl blue solution in 1xPBS following by incubation for 3 h at 37°C. Then the solution was removed and 25 μl DMSO was added into each well. Absorbance at 510 nm was measured in a Tecan Infinite M200 PRO plate reader.

[4] = tested on: HCC1395 TNBC cell line; test: MTT survival assay HCC1395; format: cell-based; conditions: Homo sapiens, HCC1395; Table S2; read-out: MTT HCC-1395 IC50
Description: as §4

[5] = tested on: MDA-MB-231 TNBC cell line; test: MTT survival assay MDA-MB-231; format: cell-based; conditions: for IC50: Homo sapiens, MDA-MB-231
Description: as §4

[6] = tested on: HCC1806 TNBC cell line; test: MTT survival assay HCC1806; format: cell-based; conditions: for IC50: Homo sapiens, HCC1806
Description: as §4

[7] = tested on: MDA-MB-468 TNBC cell line; test: MTT survival assay MDA-MB-468; format: cell-based; conditions: Homo sapiens, MDA-MB-468; Table S2
Description: as §4

[8] = tested on: non-cancerous breast epithelial cell line MCF10a; test: MTT survival assay MCF10a; format: cell-based; conditions: Homo sapiens, MCF-10A
Description: as §4

[9] = tested on: HCC1395 cells; test: in vitro; conditions: for HCC1395 Cytotoxicity Efficacy: human
Description: as §1, §2, §3

[10] = HCC1395, HCC1395, stimulation with CHIR99021 (GSK3β inhibitor)
[11] = HCC1395, HCC1395, stimulation with CHIR99021 (GSK3β inhibitor), read-out: HCC1395 TopFlash IC50
[12] = Table S2, read-out: MTT MDA-MB-231 IC50
[13] = Table S2, read-out: MTT HCC1806 IC50
[14] = Table S2, read-out: MTT MCF10 IC50
[15] = HCC1395, Table S2, TopFlash, GSK3β inhibitor stimulation, read-out: GSK HCC1395 IC50

Structure (SMILES) | IC50 [1, 11] | IC50 ([2]; HCC1395 Cytotoxicity IC50) | TopFlash activity in words ([1]; HCC1395) | GSK HCC1395 Comments [1] | HCC1395 Cytotoxicity Efficacy [9] | other results
COc1ccccc1CNc1ncnc2sccc12 [Compound 4b, N-(2-methoxybenzyl)thieno[2,3-d]pyrimidin-4-amine] | 2.79 ± 0.67 µM | > 50 µM |  |  |  | HCC1395 TopFlash Efficacy ([1]; HCC1395, stimulation with CHIR99021 (GSK3β inhibitor)): 40.7 ± 3.1%; Emax [1, 10]: 40.7%; fold improvement in the activity compared to 4a ([1]; TopFlash IC50 vs 4a): 3 fold; IC50 [3]: > 50 µM; IC50 [4]: 8.17 µM; IC50 ([5]; Figure 3B heatmap, read-out: IC50, μM (MDA-MB-231)): > 10 µM; IC50 [5, 12]: > 50 µM; IC50 [6, 13]: > 50 µM; MTT HCC1806 Comments ([6]; Table S2): Inactive; IC50 [7]: 11.8 µM; IC50 ([8]; Figure 3B heatmap, read-out: IC50, μM (MCF10)): > 10 µM; IC50 [8, 14]: 33.2 µM
COc1ccc(CNc2ncnc3sccc23)cc1 [Compound 4d, N-(4-methoxybenzyl)thieno[2,3-d]pyrimidin-4-amine] | > 50 µM |  | abrogated the activity | Inactive |  | IC50 [3]: 39.8 µM; IC50 [4]: > 50 µM; IC50 [5, 12]: > 50 µM; MTT MDA-MB-231 Comments ([5]; Table S2): Inactive; IC50 ([6]; Figure 3B heatmap, read-out: IC50, μM (HCC1806)): > 50 µM; IC50 [6, 13]: 46.5 µM; IC50 [7]: 14.2 µM; IC50 [8, 14]: > 50 µM
Fc1ccccc1CNc1ncnc2sccc12 [Compound 4e, N-(2-fluorobenzyl)thieno[2,3-d]pyrimidin-4-amine] |  | 7.45 ± 2.08 µM |  | Toxic |  | Cytotoxicity (Renilla) in words [9]: toxicity
Fc1cccc(CNc2ncnc3sccc23)c1 [Compound 4f, N-(3-fluorobenzyl)thieno[2,3-d]pyrimidin-4-amine] | > 50 µM |  |  | Inactive |  | 
Clc1ccccc1CNc1ncnc2sccc12 [Compound 4h, N-(2-chlorobenzyl)thieno[2,3-d]pyrimidin-4-amine] |  | 8.61 ± 4.38 µM |  | Toxic | 67.1 ± 7.8% | 
N#Cc1ccccc1CNc1ncnc2sccc12 [Compound 4k, 2-((thieno[2,3-d]pyrimidin-4-ylamino)methyl)benzonitrile] | > 50 µM |  |  | Inactive |  | 
N#Cc1cccc(CNc2ncnc3sccc23)c1 [Compound 4l, 3-((thieno[2,3-d]pyrimidin-4-ylamino)methyl)benzonitrile] |  | 10 ± 3.36 µM |  | Toxic | 32.2 ± 10.5% | 
N#Cc1ccc(CNc2ncnc3sccc23)cc1 [Compound 4m, 4-((thieno[2,3-d]pyrimidin-4-ylamino)methyl)benzonitrile] | > 50 µM |  | abrogated the activity | Inactive |  | GSK HCC1395 Renilla Comments [9]: Non-toxic
COc1cccc(C(C)Nc2ncnc3sccc23)c1 (centres unmarked) [Compound 5b, N-(1-(3-methoxyphenyl)ethyl)thieno[2,3-d]pyrimidin-4-amine] | > 50 µM |  | inactive |  |  | GSK HCC1395 Renilla Comments [9]: Non-toxic
CC(Nc1ncnc2sccc12)c1ccc(F)cc1 (centres unmarked) [Compound 5c, N-(1-(4-fluorophenyl)ethyl)thieno[2,3-d]pyrimidin-4-amine] | 2.1 ± 1.64 µM | > 50 µM |  |  |  | Emax [1, 10]: 46.9 ± 8.41%
Cc1ccc(C(C)Nc2ncnc3sccc23)cc1 (centres unmarked) [Compound 5e, N-(1-(p-tolyl)ethyl)thieno[2,3-d]pyrimidin-4-amine] | 0.63 ± 0.21 µM | > 50 µM |  |  |  | Emax [1, 10]: 47 ± 9.67%
c1ccc(Nc2ncnc3sccc23)cc1 [Compound 5f, N-phenylthieno[2,3-d]pyrimidin-4-amine] | > 50 µM |  | inactive |  |  | 
CCN(Cc1cccc(OC)c1)c1ncnc2sccc12 [Compound 5i, N-ethyl-N-(3-methoxybenzyl)thieno[2,3-d]pyrimidin-4-amine] |  | 8.3 ± 3.79 µM |  | Toxic | 64.1 ± 9.3% | 
COc1cccc(CCNc2ncnc3sccc23)c1 [Compound 5n, N-(3-methoxyphenethyl)thieno[2,3-d]pyrimidin-4-amine] | > 50 µM |  | not tolerated | Inactive |  | 
COc1cccc(C(=O)Nc2ncnc3sccc23)c1 [Compound 7, 3-methoxy-N-(thieno[2,3-d]pyrimidin-4-yl)benzamide] | > 50 µM |  |  | Inactive |  | 
COc1ccccc1CNc1ncnc2ccccc12 [Compound 9a, N-(2-methoxybenzyl)quinazolin-4-amine] |  | 29 ± 14.5 µM |  | Toxic | 100 ± 0% | 
Clc1ccc(CCNc2ncnc3ccccc23)cc1 [Compound 9g, N-(4-chlorophenethyl)quinazolin-4-amine] |  |  |  | Toxic | 100 ± 0% | IC50 [2]: 13 ± 1.45 µM
CC(Nc1ncnc2ccccc12)c1ccc(F)cc1 (centres unmarked) [Compound 9h, N-(1-(4-fluorophenyl)ethyl)quinazolin-4-amine] | 10.7 ± 2.33 µM | 16.6 ± 6.59 µM |  |  | 51.1 ± 21.3% | Emax [1, 10]: 66.4 ± 6.9%
COc1cccc(CNc2ncnc3c(C)csc23)c1 [Compound 10, N-(3-methoxybenzyl)-7-methylthieno[3,2-d]pyrimidin-4-amine] | > 100 µM | > 100 µM | no longer active | Inactive |  | IC50 [1, 15]: > 50 µM; GSK HCC1395 Renilla Comments [9]: Non-toxic
COc1cccc(CNc2cc(Cl)ncn2)c1 [Compound 11, 6-chloro-N-(3-methoxybenzyl)pyrimidin-4-amine] | 58.2 ± 1.48 µM |  | no longer active |  |  | Emax [1, 10]: 100%; IC50 [1, 15]: > 50 µM
COc1cccc(CNc2ccncn2)c1 [Compound 12, N-(3-methoxybenzyl)pyrimidin-4-amine] | > 100 µM |  | no longer active | Inactive |  | IC50 [1, 15]: > 50 µM
COc1cccc(CNc2nccc3ccccc23)c1 [Compound 13, N-(3-methoxybenzyl)isoquinolin-1-amine] | > 100 µM | > 100 µM |  |  |  | IC50 [1, 15]: > 50 µM; GSK HCC1395 Renilla Comments [9]: Non-toxic
COc1cccc(CNc2ccnc3ccccc23)c1 [Compound 16, N-(3-methoxybenzyl)quinolin-4-amine] |  | 18.7 µM |  | Toxic | 39.4 ± 13.0% | 
